Measurements taken from US8546608B2, “Proteasome inhibitors and methods of using the same” (Cephalon, Inc., priority 2003, dated 2013).
pEC50, pIC50: −log10 of the molar value.

Legend:
[1] = biological target: T1, 20S Human Erythrocyte Proteasome (HEP) (Homo sapiens, UniProt P20618+P28074); experiment: Chymotrypsin-like activity of 20S Human Erythrocyte Proteasome (HEP), IC50 determination; type: biochemical; settings: assay of Example C, inhibition of HEP
T1 construct: 20S Human Erythrocyte Proteasome (HEP), purchased from Immatics Biotechnologies Inc; purchased Immatics Biotechnologies Inc., Tübingen, Germany; host or cells: human erythrocytes (natural source)
Outline: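 20S proteasome at 0.2 μg/mL (about 0.6 nM catalytic sites) in 20 mM Tris with 0.04% SDS, preincubated 15 min at 37° C with inhibitor before Suc-LLVY-AMC (100 μM final). AMC fluorescence read in the linear range; triplicates, IC50 from concentration series.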

[2] = biological target: T2, proteasome in Molt-4 cells (human leukemia) (Homo sapiens, UniProt P20618+P28074); type: cell-based; settings: assay of Example E, inhibition of MOLT4; read-out: MOLT4 (EC50)
T2 sequence (P28074 60-263): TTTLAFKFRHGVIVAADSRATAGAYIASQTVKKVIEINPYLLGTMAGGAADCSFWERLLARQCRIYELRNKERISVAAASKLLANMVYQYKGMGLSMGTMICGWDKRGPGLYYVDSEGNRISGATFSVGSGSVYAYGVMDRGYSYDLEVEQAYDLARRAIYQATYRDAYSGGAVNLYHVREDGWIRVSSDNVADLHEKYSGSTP
T2 sequence (P20618 29-241): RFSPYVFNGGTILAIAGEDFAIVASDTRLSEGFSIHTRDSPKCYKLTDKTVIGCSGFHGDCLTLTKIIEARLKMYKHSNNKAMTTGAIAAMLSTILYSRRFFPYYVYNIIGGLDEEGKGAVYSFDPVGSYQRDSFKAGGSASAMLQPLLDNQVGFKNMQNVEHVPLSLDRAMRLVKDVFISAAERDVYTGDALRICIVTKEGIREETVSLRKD
Outline: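 Intact Molt-4 cells (6×10^6 cells/mL) in HEPES-buffered saline were preincubated with inhibitor 15 min at 37 °C, then given cell-permeable MeOSuc-FLF-AFC at 25 μM final.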

Row | SMILES | melting point [°C] | pIC50 [1] | pEC50 [2]
1 | CCCCCCCCCC(=O)N[C@@H](CNC(=O)c1ccc(S(N)(=O)=O)cc1)C(=O)N[C@@H](CC(C)C)B1O[C@@H]2C[C@@H]3C[C@@H](C3(C)C)[C@]2(C)O1 [D.24.2, Decanamide, N-[(1S)-1-[[[(1R)-1-[(3aS,4S,6S,7aR)-hexahydro-3a,5,5-trimethyl-4,6-methano-1,3,2-benzodioxaborol-2-yl]-3-methylbulyl]amino]carbonyl]-2-[(4-sulfonamidophenyl)carbonyl-amido]ethyl]-] | 178 to 181 |  | 
2 | CCCCc1ccc(C(=O)N[C@@H](CNS(=O)(=O)c2cn(C)cn2)C(=O)N[C@@H](CC(C)C)B2O[C@@H]3C[C@@H]4C[C@@H](C4(C)C)[C@]3(C)O2)cc1 [D.24.23, 4-butylbenzamide, N-[(1S)-1-[[[(1R)-1-[(3aS,aS,6S,7aR)-hexahydro-3a,5,5-trimethyl-4,6-methano-1,3,2-benzodioxaborol-2-yl-]-3-methylbulyl]amino]carbonyl]-2-[(1-methyl-1H-imidazole-4-)sulfonylamino]ethyl]-] | 69 to 71 |  | 
3 | CC(C)C[C@H](NC(=O)[C@H](CNC(=O)c1ccc(-c2ccccc2)cc1)NC(=O)c1ccc(Oc2ccccc2)cc1)B1O[C@@H]2C[C@@H]3C[C@@H](C3(C)C)[C@]2(C)O1 [D.24.31, 4-phenoxybenzamide, N-[(1S)-1-[[[(1R)-1-[(3aS,4S,6S,7aR)-hexahydro-3a,5,5-trimethyl-4,6-methano-1,3,2-benzodioxaborol-2-yl]-3-methylbutyl]amino]carbonyl]-2-(4-phenylbenzoylamino)ethyl]-] | 150 to 152 |  | 
4 | CC(C)C[C@H](NC(=O)[C@H](CCCNC(=N)N[N+](=O)[O-])NC(=O)CCc1c[nH]c2ccccc12)B1O[C@@H]2C[C@@H]3C[C@@H](C3(C)C)[C@]2(C)O1 [D.3.103, 3-(1H-Indol-3-yl)-propanamide,N-[(1S)-1-[[[(1R)-1-[(3aS,4S,6S,7aR)-hexahydro-3a,5,5-trimethyl-4,6-methano-1,3,2-benzodioxaborol-2-yl]-3-methylbutyl]amino]carbonyl]-4-[[imino(nitroamino)methyl]amino]butyl]] |  | > 8.00 | 5.70 to 6.70
5 | CC(C)C[C@H](NC(=O)[C@H](CC(N)=O)NC(=O)c1cnccn1)B1O[C@@H]2C[C@@H]3C[C@@H](C3(C)C)[C@]2(C)O1 [D.8.18, 2-Pyrazinecarboxamide, N-[(1S)-1-[[[(1R)-1-[(3aS,4S,6S,7aR)-hexahydro-3a,5,5-trimethyl-4,6-methano-1,3,2-benzodioxaborol-2-yl]-3-methylbutyl]amino]carbonyl]-2-carbamoylethyl]] |  | > 7.00 | 5.70 to 6.70
6 | Cc1ccc(OCC(=O)N[C@@H](CCCNC(=N)N[N+](=O)[O-])C(=O)N[C@@H](CC(C)C)B2O[C@@H]3C[C@@H]4C[C@@H](C4(C)C)[C@]3(C)O2)cc1C [D.3.67, 2-(3,4-Dimethylphenoxy)acetamide,N-[(1S)-1-[[[(1R)-1-[(3aS,4S,6S,7aR)-hexahydro-3a,5,5-trimethyl-4,6-methano-1,3,2-benzodioxaborol-2-yl]-3-methylbutyl]amino]carbonyl]-4-[[imino(nitroamino)methyl]amino]butyl]] |  | > 8.00 | > 6.70
7 | CCCCCC/C=C/C(=O)N[C@@H](CCCNC(=N)N[N+](=O)[O-])C(=O)N[C@@H](CC(C)C)B1O[C@@H]2C[C@@H]3C[C@@H](C3(C)C)[C@]2(C)O1 [D.3.96, Non-2-enoic acid amide,N-[(1S)-1-[[[(1R)-1-[(3aS,4S,6S,7aR)-hexahydro-3a,5,5-trimethyl-4,6-methano-1,3,2-benzodioxaborol-2-yl]-3-methylbutyl]amino]carbonyl]-4-[[imino(nitroamino)methyl]amino]butyl]] |  | > 8.00 | > 6.70
8 | CCCCc1ccc(C(=O)N[C@H](C(=O)N[C@@H](CC(C)C)B2OC3(CCCCC3)C3(CCCCC3)O2)[C@@H](C)O)cc1 [F.2.1, 4-Butylbenzamide, N-[(1S,2R)-1-[[[(1R)-1-[13,15-dioxa-14-bora-dispiro[5.0.5.3]pentadec-14-yl]-3-methylbutyl]amino]carbonyl]-2-hydroxypropyl]-] |  | > 7.00 | 5.70 to 6.70
9 | Cc1ccc(S(=O)(=O)CC(=O)N[C@@H](CCCNC(=N)N[N+](=O)[O-])C(=O)N[C@@H](CC(C)C)B2O[C@@H]3C[C@@H]4C[C@@H](C4(C)C)[C@]3(C)O2)cc1 [D.3.182] |  | > 7.00 | 5.70 to 6.70
10 | CC(C)C[C@H](NC(=O)[C@H](CCCNC(=N)N[N+](=O)[O-])NC(=O)c1cccc(NC(=O)OC(C)(C)C)c1)B1O[C@@H]2C[C@@H]3C[C@@H](C3(C)C)[C@]2(C)O1 [D.1.5, 3-[(1,1-dimethylethoxy)carbonylamino]benzamide, N-[(1S)-1-[[[(1R)-1-[(3aS,4S,6S,7aR)-hexahydro-3a,5,5-trimethyl-4,6-methano-1,3,2-benzodioxaborol-2-yl]-3-methylbutyl]amino]carbonyl]-4-[[imino(nitroamino)methyl]amino]butyl]-] |  | > 8.00 | 5.70 to 6.70

The next lines start with the values.

Row | melting point [°C] | pIC50 [1] | pEC50 [2] | SMILES
11 | 38 to 40 |  |  | CC(C)C[C@H](NC(=O)[C@@H](NC(=O)[C@H](CC(C)C)NC(=O)OCc1ccccc1)[C@@H](C)O)B1O[C@@H]2C[C@@H]3C[C@@H](C3(C)C)[C@]2(C)O1 [D.8.1, (2S)-2-[(Benzyloxycarbonyl)amino]-4-methylpentanamide, N-[(1S,2R)-1-[[[(1R)-1-[(3aS,4S,6S,7aR)-hexahydro-3a,5,5-trimethyl-4,6-methano-1,3,2-benzodioxaborol-2-yl]-3-methylbutyl]amino]carbonyl]-2-hydroxypropyl]-]
12 |  | > 8.00 | < 5.00 | COc1ccc(C(=O)N[C@@H](CCCNC(=N)N[N+](=O)[O-])C(=O)N[C@@H](CC(C)C)B(O)O)cc1F [D.7.35, Boronic acid, [(1R)-1-[[(2S)-5-[[imino(nitroamino)methyl]amino]-2-[(3-fluoro-4-methoxybenzoyl)amino]-1-oxopentyl]amino]-3-methylbutyl]]
13 |  | > 8.00 | > 6.70 | CC(C)C[C@H](NC(=O)[C@@H](NC(=O)CCCc1ccccc1)[C@@H](C)O)B(O)O [E.1.23, Boronic acid, [(1R)-1-[[(2S,3R)-3-hydroxy-2-[(4-phenylbutanoyl)amino]-1-oxobutyl]amino]-3-methylbutyl]]
14 |  | > 8.00 | 5.70 to 6.70 | CCCCCCCCC(=O)N[C@@H](CCCNC(=N)N[N+](=O)[O-])C(=O)N[C@@H](CC(C)C)B(O)O [E.2.9, Boronic acid, [(1R)-1-[[(2S)-5-[[imino(nitroamino)methyl]amino]-2-[(nonanoyl)amino]-1-oxopentyl]amino]-3-methylbutyl]]
15 |  | > 8.00 | > 6.70 | CCCCCCCCCC(=O)N[C@@H](CC(N)=O)C(=O)N[C@@H](CC(C)C)B(O)O [E.1.27, Boronic acid, [(1R)-1-[[(2S)-3-carbamoyl-2-[(decanoyl)amino]-1-oxopropyl]amino]-3-methylbutyl]]
16 |  | > 7.00 | 5.70 to 6.70 | CC(C)C[C@H](NC(=O)[C@@H](NC(=O)c1cnccn1)[C@@H](C)O)B(O)O [E.4.1, Boronic acid, [(1R)-1-[[(2S,3R)-3-hydroxy-2-[(2-pyrazinecarbonyl)amino]-1-oxobutyl]amino]-3-methylbutyl]]
17 |  | > 8.00 | > 6.70 | CC(C)C[C@H](NC(=O)[C@@H](NC(=O)CCCCCCCCCN1C(=O)c2ccccc2C1=O)[C@@H](C)O)B(O)O [E.1.18, Boronic acid, [(1R)-1-[[(2S,3R)-3-hydroxy-2-[[10-(1,3-dioxo-1,3-dihydro-isoindol-2-yl)-decanoyl]amino]-1-oxobutyl]amino]-3-methylbutyl]]
18 |  | > 8.00 | 5.70 to 6.70 | CC(C)C[C@H](NC(=O)[C@H](CCCNC(=N)N[N+](=O)[O-])NC(=O)COc1ccc(C(C)C)cc1)B(O)O [D.7.5, Boronic acid, [(1R)-1-[[(2S)-5-[[imino(nitroamino)methyl]amino]-2-[(2-(4-isopropylphenoxy)acetyl)amino]-1-oxopentyl]amino]-3-methylbutyl]]
19 |  | > 8.00 | < 5.00 | CSCC(=O)N[C@@H](CCCNC(=N)N[N+](=O)[O-])C(=O)N[C@@H](CC(C)C)B(O)O [E.2.68, Boronic acid, [(1R)-1-[[(2S)-5-[[imino(nitroamino)methyl]amino]-2-[(2-methylsulfanylacetyl)amino]-1-oxopentyl]amino]-3-methylbutyl]]
20 |  | > 8.00 | 5.00 to 5.70 | CC(C)C[C@H](NC(=O)[C@H](CCCNC(=N)N[N+](=O)[O-])NC(=O)c1ccc(Br)cc1)B(O)O [D.7.39, Boronic acid, [(1R)-1-[[(2S)-5-[[imino(nitroamino)methyl]amino]-2-[(4-bromobenzoyl)amino]-1-oxopentyl]amino]-3-methylbutyl]]
21 |  | > 8.00 | 5.00 to 5.70 | CCCC/C=C/C(=O)N[C@@H](CCCNC(=N)N[N+](=O)[O-])C(=O)N[C@@H](CC(C)C)B(O)O [E.2.21, Boronic acid, [(1R)-1-[[(2S)-5-[[imino(nitroamino)methyl]amino]-2-[(hept-2-enoyl)amino]-1-oxopentyl]amino]-3-methylbutyl]]
